{
  "source": "patent EP0932388B1",
  "about": "“DOSAGE FORM AND METHOD FOR ADM[…]” (ALZA CORPORATION, priority 1996, dated 1998)",
  "tested_on": "school children",
  "experiment": "clinical study of methylphenidate release profiles (SKAMP and CLAM ratings, mathematics test, activity monitor)",
  "format": "in vivo",
  "details": "oral",
  "protocol": "The CLAM Test is a behavior rating that indicates social conformity or rebellion as developed by Conners, Lonez, and Milch and SKAMP is a rating that also measures behavior as developed by Swanson and reported in Psychopharmacological Bulletin, Vol. 21, pp. 887-890 (1985).\nThe effect measurements in this study were: (1) observer ratings on SKAMP scale (during classroom time) and (2) performance on the computerized mathematics test. Each child was tested on the mathematics test before the study began, and based on this pre-test during the study, a mathematics test appropriate for each child's ability was given. The morning and evening parent CLAM assessments were used to identify unusual behaviors. The evening parent CLAM was used to determine the presence of treatment effects in the evening hours, particularly treatment effects on the time the child fell asleep, and whether the child's sleep was interrupted. All of the children also wore an activity monitor (Actigraph) which records the movements of the child throughout the day. The activity (number of movements per minute) is recorded electronically and modeled as a function of the drug effect.\nThe immediate release tablet and the sustained-release dosage form were compared to a sustained-release dosage form that administered methylphenidate in an ascending profile. The sustained-release ascending profile corresponds to administering 4.2 mg at zero hour, 1.1 mg at 1.5 hours, 1.1 mg at 2 hours, 1.2 mg at 2.5 hours, 1.2 mg at 3.0 hours, 1.3 mg at 3.5 hours, 1.3 mg at 4 hours, 1.5 mg at 4.5 hours, 1.5 mg at 5 hours, 1.8 mg at 5.5 hours, 1.8 mg at 6 hours, and 2.0 mg at 6.5 hours, to produce the sustained-ascending release dotted line profile seen in Figure 2.\nThe accompanying figures present the results of the above-described study. […]",
  "data": [
    {"smiles": "COC(=O)C(c1ccccc1)C1CCCCN1", "note": "(stereo not drawn) [methylphenidate]", "values": [
      {"measurement": "therapeutic effect and tolerance", "setting": "controlled-sustained ascending profile of methylphenidate", "result": "desired therapeutic effect without tolerance"},
      {"measurement": "acute tolerance", "setting": "sustained-nonascending dose of methylphenidate (20 mg program)", "result": "development of acute tolerance"},
      {"measurement": "behavior, activity and mathematical scores", "setting": "sustained-nonascending dose of methylphenidate (20 mg program), versus placebo", "result": "a decrease in activity, higher mathematical scores and a lessening of inappropriate behavior"}
    ]}
  ]
}
